Measured values published in doi:10.1101/571604v1 (biorxiv, 2019).

How the values were obtained:
[1] = target: T1, FPR2 (PathHunter eXpress CHO-K1 FPR2 cells) (Homo sapiens, UniProt P25090); assay: beta-arrestin recruitment, PathHunter enzyme fragment complementation; format: cell-based
T1 sequence (P25090 1-351): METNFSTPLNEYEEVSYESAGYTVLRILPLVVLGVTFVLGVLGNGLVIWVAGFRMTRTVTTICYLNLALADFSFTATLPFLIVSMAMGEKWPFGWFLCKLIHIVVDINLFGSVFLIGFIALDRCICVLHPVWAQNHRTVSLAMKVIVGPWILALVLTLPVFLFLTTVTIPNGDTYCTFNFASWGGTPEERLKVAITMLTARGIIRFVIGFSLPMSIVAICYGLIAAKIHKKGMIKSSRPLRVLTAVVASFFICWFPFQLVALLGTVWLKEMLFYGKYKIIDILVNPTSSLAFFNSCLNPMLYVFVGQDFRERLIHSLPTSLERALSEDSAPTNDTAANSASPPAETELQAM

[2] = target: T2, FPR2 (human blood neutrophils) (Homo sapiens, UniProt P25090); assay: NADPH-oxidase superoxide release, isoluminol chemiluminescence, peak response; format: cell-based; conditions: agonist; naive neutrophils, 37 °C, pH 7.3
T2 sequence (P25090 1-351): T1 sequence (P25090 1-351)

- EC50 [1]: ~0.02 µM
- EC50 [2]: ~0.01 µM
Structure (SMILES): Cc1cccc(-c2oc(C)nc2C(=O)Nc2cnn(Cc3nc(C(C)(F)F)co3)n2)c1 [Act-389949, N-(2-{[4-(1,1-difluoroethyl)-1,3-oxazol-2-yl]methyl}-2H-1,2,3-triazol-4-yl)-2-methyl-5-(3-methylphenyl)-1,3-oxazole-4-carboxamide]
